Experimental data reported in PMC4979527, “Post-translational allosteric activation of the P2X7 receptor through glycosaminoglycan chains of CD44 proteoglycans” (Cell Death Discovery, 2015).
“Also recorded” adds a separate entry of the source.

Experiments:
P2X7 receptor [1] = molecular target: T1, P2X7 receptor (Cricetulus griseus, UniProt A0A9J7FWH6); assay: Cytoplasmic Ca2+ influx (Fluo-4, Flex Station 3) in wild-type CHO-K1 cells; type: cell-based, Chinese hamster; conditions: for Increase of Ca2+cyt response by heparin pre-treatment: heparin pre-incubation 5 min (10-100 μM)
T1 sequence (A0A9J7FWH6 1-593): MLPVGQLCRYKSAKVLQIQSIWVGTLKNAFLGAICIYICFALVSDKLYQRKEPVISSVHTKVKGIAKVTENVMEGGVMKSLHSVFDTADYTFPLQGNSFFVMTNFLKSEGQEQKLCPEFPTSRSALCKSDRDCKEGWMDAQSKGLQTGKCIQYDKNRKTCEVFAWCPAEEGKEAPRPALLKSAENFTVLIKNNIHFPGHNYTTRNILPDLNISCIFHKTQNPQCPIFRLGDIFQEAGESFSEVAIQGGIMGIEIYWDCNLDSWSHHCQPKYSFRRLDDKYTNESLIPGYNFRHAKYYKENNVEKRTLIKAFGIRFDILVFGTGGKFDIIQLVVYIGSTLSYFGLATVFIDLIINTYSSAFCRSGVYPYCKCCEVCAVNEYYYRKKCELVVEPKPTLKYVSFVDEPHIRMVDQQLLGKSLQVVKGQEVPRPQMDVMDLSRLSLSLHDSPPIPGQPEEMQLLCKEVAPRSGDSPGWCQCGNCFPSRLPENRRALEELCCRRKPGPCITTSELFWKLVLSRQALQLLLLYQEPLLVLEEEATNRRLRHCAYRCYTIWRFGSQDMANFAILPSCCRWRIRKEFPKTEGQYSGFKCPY
Method: (§1) Cytoplasmic Ca^2+ influx, [Ca^2+]cyt, measurements were monitored through changes of the Fluo-4 fluorescence intensity in real time using the Flex Station 3 microplate reader system. CHO-K1 (●-●) and CHO-745 ([…]-[…]) cells were seeded onto black 96-well plates (10^4 cells/well). Then, the cells were incubated with Fluo-4 for 1 h at 37 °C. […] The data represent the mean±S.E.M. (N=6).
(§2) Subsequently, the cells were incubated with Fluo-4 Direct Calcium Assay reagent for 1 h at 37 °C, according to the manufacturer’s instructions. The samples were stimulated with different agonists, and the fluorescence was quantified using a Flex Station 3 microplate reader (Molecular Devices, Sunnyvale, CA, USA). The Fluo-4 was excited at 490 nm and the emission was detected at 525 nm.[57]

P2X7 receptor [2] = molecular target: T1, P2X7 receptor; assay: Cytoplasmic Ca2+ influx (Fluo-4, Flex Station 3) in mutant CHO-745 cells defective in GAGs; type: cell-based, Chinese hamster; conditions: for Increase of Ca2+ response by heparin pre-treatment: heparin pre-incubation 5 min (10-100 μM)
Method: as §1, §2

P2 receptors = assay: Cytoplasmic Ca2+ influx (Fluo-4) in CHO cells, both lines; type: cell-based, Chinese hamster; conditions: for Intracellular Ca2+ increase on agonist addition: CHO cells, concentration-response curves; for Modulation of BzATP-stimulated Ca2+ influx by divalent cation: high concentration of cation (10 mM MgCl2; Cu2+ vs 100 μM BzATP), CHO-K1 and CHO-745
Method: as §1, §2

CHO-K1 and CHO-745 cells = assay: Cell viability (MTT) and cell death (annexin V-APC/7-AAD) assay; type: cell-based; conditions: 24 h; for Morphology of CHO cultures (phase contrast microscopy): 4 mM ATP or 1 mM BzATP; for Cell death (MTT assay): high concentration (ATP >1 mM, BzATP >500 μM), both lines
Method: The viability of CHO cell lines was determined using the MTT assay.[58] […] The medium was removed, 100 μl of MTT (1 mg/ml) was added to each well and the cells were incubated again at 37 °C for 4 h. The supernatant was removed and 200 μl/well of DMSO was added to solubilize the formazan crystals formed. The absorbance was read at 570 nm using a microplate reader, and the cell viability was determined using the standard reduction of the MTT. The results were expressed relative to control cell viability (100%).
Cell death was investigated using annexin V-APC/7-AAD double staining and was analyzed through flow cytometry.[57],[59] […] The suspensions were transferred to tubes, centrifuged and resuspended with annexin V-APC and 7-AAD according to the manufacturer’s instructions. The cells were incubated at room temperature for 30 min, and the viable, apoptotic or necrotic cell populations were evaluated through flow cytometry. The data were collected using a FACSCalibur flow cytometer (Becton–Dickinson) and CellQuest software (Becton–Dickinson), followed by analysis using FlowJo software (Tree Star). […] The results were calculated as the percentage of cell death compared with the control.

P2X7 receptor [3] = molecular target: T1, P2X7 receptor; conditions: 4 mM ATP
Method: P2X7 pore formation was functionality examined in CHO cells by analyzing PI uptake using a FACSCalibur flow cytometer (Becton–Dickinson). The cells were seeded onto six-well plates (10^6 cells/well) and maintained for 48 h at 37 °C under an atmosphere of 5% (v/v) CO2. Subsequently, the cells were harvested using 10 mM EDTA/PBS and adjusted to a concentration of 10^6 cells per tube. The samples were incubated with 5 μM of PI at a final volume of 200 μl/well in fresh serum-free medium F12 for 15 min, followed by the addition of 4 mM ATP and incubation at 37 °C for 30, 60 and 120 min, respectively. The intensity of dye uptake was immediately determined. A total of 10 000 events were collected for each sample.[60],[61]

[4] = CHO-K1, in presence of 10 mM Mg2+ (MgCl2)
[5] = CHO-745, in presence of 10 mM Mg2+ (MgCl2)

## Nc1ncnc2c1ncn2[C@@H]1O[C@H](COP(=O)(O)OP(=O)(O)OP(=O)(O)O)[C@@H](OC(=O)c2ccc(C(=O)c3ccccc3)cc2)[C@H]1O (relative stereo) [BzATP+Mg^2+]
P2X7 receptor [1]; [4]
  Emax: 153±6 URF
  Hill coefficient: 1.5±0.1
P2X7 receptor [2]; [5]
  Emax: 119±10 URF
  Hill coefficient: 2.8±0.3

## Nc1ncnc2c1ncn2[C@@H]1O[C@H](COP(=O)(O)OP(=O)(O)OP(=O)(O)O)[C@@H](OC(=O)c2ccc(C(=O)c3ccccc3)cc2)[C@H]1O (relative stereo) [BzATP, 2′(3′)-O-(4-benzoylbenzoyl)adenosine 5′-triphosphate]
P2X7 receptor [1]; CHO-K1, Ca2+ influx
  Emax: 275±8 URF
  Hill coefficient: 1.0±0.1
P2X7 receptor [1]; [4]
  Emax: 153±6 URF
P2X7 receptor [2]; CHO-745, Ca2+ influx
  Emax: 136±6 URF
  Hill coefficient: 1.8±0.2
P2X7 receptor [2]; [5]
  Emax: 119±10 URF
  Hill coefficient: 2.8±0.3
P2 receptors
  Intracellular Ca2+ increase on agonist addition: promoted Ca^2+ increase
CHO-K1 and CHO-745 cells
  Morphology of CHO cultures (phase contrast microscopy): increased morphological changes and cell detachment
  Cell death (MTT assay): promoted cell death

## CSc1nc(N)c2ncn([C@@H]3O[C@H](COP(=O)(O)OP(=O)(O)OP(=O)(O)O)[C@@H](O)[C@H]3O)c2n1 [2-MeSATP, 2-(methylthio)adenosine 5′-triphosphate]
P2 receptors
  Intracellular Ca2+ increase on agonist addition: did not increase intracellular Ca^2+

## Nc1ncnc2c1ncn2[C@@H]1O[C@H](COP(=O)(O)OP(=O)(O)O)[C@@H](O)[C@H]1O [ADP, adenosine 5′-diphosphate]
P2 receptors
  Intracellular Ca2+ increase on agonist addition: promoted Ca^2+ increase

## Nc1ncnc2c1ncn2[C@@H]1O[C@H](COP(=O)(O)OP(=O)(O)OP(=O)(O)O)[C@@H](O)[C@H]1O [ATP, adenosine 5′-triphosphate]
P2X7 receptor [1]; CHO-K1, Ca2+ influx
  Emax: 258±10 URF
  Hill coefficient: 0.9±0.1
P2X7 receptor [2]; CHO-745, Ca2+ influx
  Emax: 97±7 URF
  Hill coefficient: 2.0±0.3
P2 receptors
  Intracellular Ca2+ increase on agonist addition: promoted Ca^2+ increase
P2X7 receptor [3]
  Sensitivity to PI accumulation, CHO-745 less sensitive than CHO-K1: 2.5 fold
P2X7 receptor [3]; CHO cells, after 30 min at 37 °C
  Propidium iodide (PI) uptake: induced the time-dependent uptake of propidium iodide
CHO-K1 and CHO-745 cells
  Morphology of CHO cultures (phase contrast microscopy): increased morphological changes and cell detachment
  Cell death (MTT assay): promoted cell death

## [Cu+2] [Cu^2+]
P2 receptors
  Modulation of BzATP-stimulated Ca2+ influx by divalent cation: negatively modulated

## [Mg+2] [Mg^2+]
P2 receptors
  Modulation of BzATP-stimulated Ca2+ influx by divalent cation: negatively modulated

## O=c1ccn([C@@H]2O[C@H](COP(=O)(O)OP(=O)(O)O)[C@@H](O)[C@H]2O)c(=O)[nH]1 [UDP, uridine 5′-diphosphate]
P2 receptors
  Intracellular Ca2+ increase on agonist addition: promoted Ca^2+ increase

## O=c1ccn([C@@H]2O[C@H](COP(=O)(O)OP(=O)(O)OP(=O)(O)O)[C@@H](O)[C@H]2O)c(=O)[nH]1 [UTP, uridine 5′-triphosphate]
P2 receptors
  Intracellular Ca2+ increase on agonist addition: promoted Ca^2+ increase

## [Na+].[O-][Cl+2]([O-])[O-] [chlorate, sodium chlorate]
P2X7 receptor [1]; CHO-K1, pre-treatment 20 or 50 mM sodium chlorate, 24 h
  Inhibition of total P2X7 agonist (ATP or BzATP) response: ~ 35%
P2X7 receptor [2]; CHO-745, pre-treatment 20 or 50 mM sodium chlorate
  Effect on P2X7 agonist response: did not block the P2X7 agonist response

## Nc1ncnc2c1ncn2[C@@H](C=O)O[C@@H](C=O)COP(=O)(O)OP(=O)(O)OP(=O)(O)O [oxATP, adenosine 5′-triphosphate periodate oxidized]
P2X7 receptor [1]; CHO-K1, 300 μM oxATP, 100 μM BzATP
  Effect of antagonist on BzATP-evoked Ca2+ influx: abolished the effect of BzATP
P2X7 receptor [2]; CHO-745, 300 μM oxATP, 100 μM BzATP
  Effect of antagonist on BzATP-evoked Ca2+ influx: abolished the effect of BzATP

## O=[N+]([O-])c1ccccc1O[C@@H]1OC[C@@H](O)[C@H](O)[C@H]1O [xylosides, o-nitrophenyl-β-D-xylopyranoside]
P2X7 receptor [1]; CHO-K1, 2 mM xyloside pre-treatment (120 h), 3 μM BzATP
  Inhibition of response induced through BzATP-gated P2X7: 82%
P2X7 receptor [1]; CHO-K1, 2 mM xyloside pre-treatment (120 h), 10 μM ATP
  Inhibition of response induced through ATP-gated P2X7: 55%
P2X7 receptor [2]; CHO-745, 2 mM xyloside pre-treatment
  Effect on P2X7 agonist response: did not block the P2X7 agonist response

## Nc1ncnc2c1ncn2C1OC(COP(=O)(O)CP(=O)(O)OP(=O)(O)O)C(O)C1O (stereo not drawn) [αβ-MeATP, α,β-methyleneadenosine 5′-triphosphate]
P2 receptors
  Intracellular Ca2+ increase on agonist addition: did not increase intracellular Ca^2+

## Nc1ncnc2c1ncn2C1OC(COP(=O)(O)OP(=O)(O)CP(=O)(O)O)C(O)C1O (stereo not drawn) [βγ-MeATP, β,γ-methyleneadenosine 5′-triphosphate]
P2 receptors
  Intracellular Ca2+ increase on agonist addition: did not increase intracellular Ca^2+

## heparin
P2X7 receptor [1]; CHO-K1, 10 μM ATP
  Increase of Ca2+cyt response by heparin pre-treatment: 120%
P2X7 receptor [1]; CHO-K1, 100 μM heparin, 3 μM BzATP
  Potentiation of Ca2+ influx: 2.2 fold
P2X7 receptor [1]; CHO-K1, 1 mM ATP
  Increase of Ca2+cyt response by heparin pre-treatment: 78%
P2X7 receptor [2]; CHO-745, 10 μM ATP
  Increase of Ca2+ response by heparin pre-treatment: 40%
P2X7 receptor [2]; CHO-745, 1 mM ATP
  Increase of Ca2+ response by heparin pre-treatment: 50%
P2 receptors; BzATP >100 μM or ATP >4 mM
  Effect of heparin on Ca2+ influx at saturating agonist: induced no further increase in Ca^2+ influx
P2 receptors; absence of ATP or BzATP, highest heparin concentration
  P2X7 stimulation by heparin alone: did not elicit P2X7 stimulation; also recorded: did not elicit discernible P2X7 activation
